Measurements: patent publication US9266904B2, “6-bridged heteroaryldihydropyrimidines for the treatment and prophylaxis of hepatitis B virus infection” (priority 2013, dated 2016)
Read-outs that look alike come from different tables or passages of the source.

Columns and labels:
[1] = system: HBV replication in HepG2.2.15 cells; test: Anti-HBV activity in vitro in HepG2.2.15 cells (extracellular HBV DNA by qPCR); type: cell-based; conditions: read-out: EC50
Source text: HepG2.2.15 and HepDE19 are stably-transfected cell lines containing the HBV genome. Both cell lines are derived from the hepatoblastoma cell line Hep G2 (American Type Culture Collection, ATCC® HB-8065™) by the published procedures described in references: M A Selles et al. Proc. Natl. Acad. Sci. USA 1987, 84, 1005-1009 and H Guo et al. Journal of Virology 2007, 81, 12472-12484, respectively. Both cell lines were maintained in Dulbecco's modified Eagle's medium (DMEM)-F12 medium supplemented with 10% fetal bovine serum, 100 U/mL penicillin, 100 μg/mL streptomycin, and 0.5 mg/mL of G418.
While HepG2.2.15 cells constitutively support HBV replication and production of virus particles, HepDE19 cells are inducible by tetracycline. Addition of 1 μg/mL tetracycline in culture medium suppresses HBV replication in HepDE19 cells, whereas switching to tetracycline-free medium resumes this process.
HepG2.2.15 cells were seeded into 96-well plates (3×10^4 cells in 100 μL media per well) and incubated overnight at 37° C. The test compounds were serially half-log diluted in DMSO, then diluted 100 times in culture media. 100 μL diluted compounds were added into the plates to reach 0.5% final concentration of DMSO in every well. Five days after compound treatment, culture supernatant was collected for further analysis.
For quantitative PCR detection of extracellular HBV DNA, 100 μL culture supernatant was collected and processed in MagNA Pure 96 Nucleic Acid Purification System (Roche Applied Science) for viral DNA extraction. The extracted samples were subjected to HBV DNA quantification by qPCR. The effective compound concentration at which HBV replication is inhibited by 50% (EC50) was determined.
The Examples were tested in the above assays as described herein and found to have EC50<1 μM in HepG2.2.15 assay.

[2] = Human microsomal clearance assay; type: in vitro ADME
Protocol: Microsomes were preincubated with test compound for 10 minutes at 37° C. in 100 mM phosphate buffer with pH 7.4. The reactions were initiated by adding NADPH regenerating system to give a final incubation volume of 400 μL. The incubations finally contained 1 μM test compound, 0.5 mg/mL liver microsomal protein, 3.0 mM glucose 6-phosphate, 1.0 mM NADP, 3.0 mM MgCl2 and 0.05 mg/mL glucose 6-phosphate dehydrogenase in 100 mM phosphate buffer with pH 7.4. After incubation times of 0, 3, 6, 9, 15 and 30 minutes, 50 μL, incubation was transferred to the quench solution containing the internal standard which was 2 μM tolbutamide. After precipitation and centrifugation, test compound concentrations in the samples were determined by LC-MS/MS. Controls of no NADPH regenerating system at zero and 30 minutes were also prepared and analyzed.

[3] = Anti-HBV activity in HepG2.2.15 cells
[4] = Hepatitis B virus, HepG2.2.15, Anti-HBV activity in HepG2.2.15 cells

Row | Compound | EC50 [1, 3] | CLh ([2]; human microsomal clearance) | EC50 [1, 4] | CLh ([2]; human, 1 μM, pH 7.4)
1 | 2-[(1R,5R,7S)-9-[[(4S)-4-(3,4-difluoro-2-methyl-phenyl)-5-methoxycarbonyl-2-thiazol-2-yl-1,4-dihydropyrimidin-6-yl]methyl]-6,6-difluoro-3-oxa-9-azabicyclo[3.3.1]nonan-7-yl]acetic acid or 2-[(1S,5S,7R)-9-[[(4S)-4-(3,4-difluoro-2-methyl-phenyl)-5-methoxycarbonyl-2-thiazol-2-yl-1,4-dihydropyrimidin-6-yl]methyl]-6,6-difluoro-3-oxa-9-azabicyclo[3.3.1]nonan-7-yl]acetic acid [Example 132] | 10.3 nM | 2.6 mL/min/kg |  | 
2 | COC(=O)C1=C(CN2C3CC(F)(F)C2C[C@](O)(CC(=O)O)C3)NC(c2nccs2)=N[C@H]1c1ccc(F)cc1Cl (single isomer, unassigned) [Example 117] |  |  | 40.2 nM | 1.8 mL/min/kg
3 | COC(=O)C1=C(CN2C3COCC2CC(OC(C)=O)C3)NC(c2nccs2)=N[C@H]1c1ccc(F)cc1Cl (stereo partly drawn) [Example 8, (R)-6-(7-Acetoxy-3-oxa-9-aza-bicyclo[3.3.1]non-9-ylmethyl)-4-(2-chloro-4-fluoro-phenyl)-2-thiazol-2-yl-1,4-dihydro-pyrimidine-5-carboxylic acid methyl ester] |  |  |  | 0 mL/min/kg
4 | COC(=O)C1=C(CN2C3COCC2CN(C(N)=O)C3)NC(c2nccs2)=N[C@H]1c1ccc(F)cc1Cl [Example 18, (R)-6-(7-Carbamoyl-3-oxa-7,9-diaza-bicyclo[3.3.1]non-9-ylmethyl)-4-(2-chloro-4-fluoro-phenyl)-2-thiazol-2-yl-1,4-dihydro-pyrimidine-5-carboxylic acid methyl ester] |  |  | 20 nM | 1.3 mL/min/kg
5 | COC(=O)C1=C(CN2C3COCC2CN(C(=O)CO)C3)NC(c2nccs2)=N[C@H]1c1ccc(F)cc1Cl [Example 21, (R)-4-(2-Chloro-4-fluoro-phenyl)-6-[7-(2-hydroxy-acetyl)-3-oxa-7,9-diaza-bicyclo[3.3.1]non-9-ylmethyl]-2-thiazol-2-yl-1,4-dihydro-pyrimidine-5-carboxylic acid methyl ester] |  |  | 20 nM | 4.3 mL/min/kg
6 | COC(=O)C1=C(CN2[C@@H]3COC[C@H]2C[C@@H](NC(N)=O)C3)NC(c2nccs2)=N[C@H]1c1ccc(F)cc1Cl [Example 57, Methyl (4R)-4-(2-chloro-4-fluoro-phenyl)-2-thiazol-2-yl-6-[[(1S,5R)-7-endo-ureido-3-oxa-9-azabicyclo[3.3.1]nonan-9-yl]methyl]-1,4-dihydropyrimidine-5-carboxylate] |  |  | 21.9 nM | 5.0 mL/min/kg
7 | COC(=O)C1=C(CN2[C@H]3C[C@@H](CC(=O)O)C[C@@H]2C(F)(F)C3)NC(c2nccs2)=N[C@H]1c1ccc(F)cc1Cl [Example 87, 2-[(1S,3R,5R)-8-[[(4R)-4-(2-chloro-4-fluoro-phenyl)-5-methoxycarbonyl-2-thiazol-2-yl-1,4-dihydropyrimidin-6-yl]methyl]-6,6-difluoro-8-azabicyclo[3.2.1]octan-3-yl]acetic acid] |  |  | 39.4 nM | 0 mL/min/kg
8 | COC(=O)C1=C(CN2[C@H]3C[C@@H](CC(=O)O)C[C@@H]2C(F)(F)C3)NC(c2nccs2)=N[C@H]1c1cccc(F)c1Cl [Example 89, 2-[(1S,3R,5R)-8-[[(4R)-4-(2-chloro-3-fluoro-phenyl)-5-methoxycarbonyl-2-thiazol-2-yl-1,4-dihydropyrimidin-6-yl]methyl]-6,6-difluoro-8-azabicyclo[3.2.1]octan-3-yl]acetic acid] |  |  | 30.5 nM | 0 mL/min/kg
9 | COC(=O)C1=C(CN2[C@H]3C[C@@H](CC(=O)O)C[C@@H]2C(F)(F)C3)NC(c2nccs2)=N[C@H]1c1ccccc1Cl [Example 91, 2-[(1S,3R,5R)-8-[[(4R)-4-(2-chlorophenyl)-5-methoxycarbonyl-2-thiazol-2-yl-1,4-dihydropyrimidin-6-yl]methyl]-6,6-difluoro-8-azabicyclo[3.2.1]octan-3-yl]acetic acid] |  |  | 90.7 nM | 5.1 mL/min/kg
10 | CCOC(=O)C1=C(CN2[C@@H]3C[C@H](CC(=O)O)C[C@H]2C(F)(F)C3)NC(c2nccs2)=N[C@H]1c1ccccc1Br [Example 92, 2-[(1R,3S,5S)-8-[[(4R)-4-(2-bromophenyl)-5-ethoxycarbonyl-2-thiazol-2-yl-1,4-dihydropyrimidin-6-yl]methyl]-6,6-difluoro-8-azabicyclo[3.2.1]octan-3-yl]acetic acid] |  |  | 1.5 nM | 1.7 mL/min/kg
11 | CCOC(=O)C1=C(CN2[C@H]3C[C@@H](CC(=O)O)C[C@@H]2C(F)(F)C3)NC(c2nccs2)=N[C@H]1c1ccccc1Br [Example 93, 2-[(1S,3R,5R)-8-[[(4R)-4-(2-bromophenyl)-5-ethoxycarbonyl-2-thiazol-2-yl-1,4-dihydropyrimidin-6-yl]methyl]-6,6-difluoro-8-azabicyclo[3.2.1]octan-3-yl]acetic acid] |  |  | 28.9 nM | 0.2 mL/min/kg
12 | COC(=O)C1=C(CN2[C@@H]3C[C@H](CC(=O)O)C[C@H]2C(F)(F)C3)NC(c2nccs2)=N[C@H]1c1cccc(F)c1Br [Example 94, 2-[(1R,3S,5S)-8-[[(4R)-4-(2-bromo-3-fluoro-phenyl)-5-methoxycarbonyl-2-thiazol-2-yl-1,4-dihydropyrimidin-6-yl]methyl]-6,6-difluoro-8-azabicyclo[3.2.1]octan-3-yl]acetic acid] |  |  | 21.7 nM | 0 mL/min/kg
13 | COC(=O)C1=C(CN2[C@H]3C[C@@H](CC(=O)O)C[C@@H]2C(F)(F)C3)NC(c2nccs2)=N[C@H]1c1cccc(F)c1Br [Example 95, 2-[(1S,3R,5R)-8-[[(4R)-4-(2-bromo-3-fluoro-phenyl)-5-methoxycarbonyl-2-thiazol-2-yl-1,4-dihydropyrimidin-6-yl]methyl]-6,6-difluoro-8-azabicyclo[3.2.1]octan-3-yl]acetic acid] |  |  | 31.1 nM | 0 mL/min/kg
14 | COC(=O)C1=C(CN2[C@@H]3C[C@H](CC(=O)O)C[C@H]2C(F)(F)C3)NC(c2nccs2)=N[C@H]1c1ccc(Cl)c(F)c1 [Example 96, 2-[(1R,3S,5S)-8-[[(4S)-4-(4-chloro-3-fluoro-phenyl)-5-methoxycarbonyl-2-thiazol-2-yl-1,4-dihydropyrimidin-6-yl]methyl]-6,6-difluoro-8-azabicyclo[3.2.1]octan-3-yl]acetic acid] |  |  | 6.8 nM | 1.8 mL/min/kg
15 | COC(=O)C1=C(CN2[C@H]3C[C@@H](CC(=O)O)C[C@@H]2C(F)(F)C3)NC(c2nccs2)=N[C@H]1c1ccc(Cl)c(F)c1 [Example 97, 2-[(1S,3R,5R)-8-[[(48)-4-(4-chloro-3-fluoro-phenyl)-5-methoxycarbonyl-2-thiazol-2-yl-1,4-dihydropyrimidin-6-yl]methyl]-6,6-difluoro-8-azabicyclo[3.2.1]octan-3-yl]acetic acid] | 156 nM | 0 mL/min/kg |  | 
16 | CCOC(=O)C1=C(CN2[C@@H]3C[C@H](CC(=O)O)C[C@H]2C(F)(F)C3)NC(c2nccs2)=N[C@H]1c1cccc(F)c1Cl [Example 98, 2-[(1R,3S,5S)-8-[[(4R)-4-(2-chloro-3-fluoro-phenyl)-5-ethoxycarbonyl-2-thiazol-2-yl-1,4-dihydropyrimidin-6-yl]methyl]-6,6-difluoro-8-azabicyclo[3.2.1]octan-3-yl]acetic acid] |  |  | 0.7 nM | 4.5 mL/min/kg
17 | CCOC(=O)C1=C(CN2[C@H]3C[C@@H](CC(=O)O)C[C@@H]2C(F)(F)C3)NC(c2nccs2)=N[C@H]1c1cccc(F)c1Cl [Example 99, 2-[(1S,3R,5R)-8-[[(4R)-4-(2-chloro-3-fluoro-phenyl)-5-ethoxycarbonyl-2-thiazol-2-yl-1,4-dihydropyrimidin-6-yl]methyl]-6,6-difluoro-8-azabicyclo[3.2.1]octan-3-yl]acetic acid] |  |  | 12.6 nM | 3 mL/min/kg
18 | COC(=O)C1=C(CN2[C@@H]3COC[C@H]2[C@H](F)[C@@H](CC(=O)O)C3)NC(c2nccs2)=N[C@H]1c1cccc(F)c1Cl [Example 100, 2-[(1S,5S,6R,7R)-9-[[(4R)-4-(2-chloro-3-fluoro-phenyl)-5-methoxycarbonyl-2-thiazol-2-yl-1,4-dihydropyrimidin-6-yl]methyl]-6-fluoro-3-oxa-9-azabicyclo[3.3.1]nonan-7-yl]acetic acid] |  |  | 283 nM | 0 mL/min/kg
